The text below walks through data of patent publication US20240352073A1, “BICYCLIC PEPTIDE INHIBITORS OF INTERLEUKIN-23 RECEPTOR” (Janssen Biotech, Inc., priority 2021, published 2024).

Series [1] has as its target T1, peripheral blood mononuclear cells (PBMCs) stimulated with IL-23 (Homo sapiens, UniProt Q5VWK5).
T1 sequence (Q5VWK5 24-629): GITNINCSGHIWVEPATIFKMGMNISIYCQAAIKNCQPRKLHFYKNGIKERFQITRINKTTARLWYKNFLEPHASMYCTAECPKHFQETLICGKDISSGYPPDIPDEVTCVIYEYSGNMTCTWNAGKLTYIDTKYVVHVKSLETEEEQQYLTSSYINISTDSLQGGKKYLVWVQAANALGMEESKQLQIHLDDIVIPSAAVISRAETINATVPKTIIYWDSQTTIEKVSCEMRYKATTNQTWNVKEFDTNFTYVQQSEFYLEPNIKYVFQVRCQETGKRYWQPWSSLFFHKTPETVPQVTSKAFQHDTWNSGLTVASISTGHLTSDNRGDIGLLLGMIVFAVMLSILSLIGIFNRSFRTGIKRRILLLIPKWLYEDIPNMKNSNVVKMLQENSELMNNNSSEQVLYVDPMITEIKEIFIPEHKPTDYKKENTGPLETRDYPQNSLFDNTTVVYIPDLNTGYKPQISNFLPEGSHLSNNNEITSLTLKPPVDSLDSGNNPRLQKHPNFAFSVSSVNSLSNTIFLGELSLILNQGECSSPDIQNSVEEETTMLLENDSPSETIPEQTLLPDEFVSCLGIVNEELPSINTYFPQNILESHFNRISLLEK
Nature of the series: PBMC pSTAT3 assay. The format is cell-based. The note with it: PBMCs from healthy donors; IL-23 5 ng/mL, 30 minutes; phosphorylated STAT3 in lysates. As to the method:
Cryopreserved peripheral blood mononuclear cells (PBMCs) from healthy donors were thawed and washed twice in ImmunoCult-XF T cell expansion medium (XF-TCEM) supplemented with CTL anti-aggregate wash. The cells were counted, resuspended at 2×10^5 cells per mL XF-TCEM supplemented with penicillin/streptomycin and 100 ng/mL […] (BioLegend, 579404), and cultured in tissue culture flasks coated with anti-CD3 (eBioscience, 16-0037-85 or BD Pharmingen, 555329) at 37° C. in 5% C02. On day 4 of culture, PBMCs were collected, washed twice in RPMI-1640 supplemented with 0.1% BSA (RPMI-BSA), and incubated in RPMI-BSA in upright tissue culture flasks for 4 hours at 37° C. in 5% C02. Following this ‘starvation,’ a total of 6×10^4 cells in 30 μL RPMI-BSA was transferred into each well of a 384-well plate pre-spotted with peptide or DMSO. The cells were incubated for 30 minutes prior to the addition of IL-23 at a final concentration of 5 ng/mL. The cells were stimulated with cytokine for 30 minutes at 37° C. in 5% C02, transferred onto ice for 10 minutes, and lysed. Cell lysates were stored at −80° C. until phosphorylated STAT3 was measured using the phospho-STAT panel kit (Meso Scale Discovery, K15202D). The results produced with PBMCs are provide in Table 5 below for several from Examples along with data from the IL23R Reporter Assays utilizing HEK293 cells described above. […]

In a further series the target is T2, IL-23R (Homo sapiens, UniProt Q5VWK5).
T2 construct: host or cells: HEK293
T2 sequence (Q5VWK5 24-629): T1 sequence (Q5VWK5 24-629)
Nature of the series: IL-23R reporter assay (HEK293, STAT-inducible luciferase). The series is classed as cell-based. The note with it: Table 4; HEK293 cells with IL-23R, IL-12Rβ1 and STAT-inducible luciferase reporter, stimulated with IL-23. Here is the method: Example 4. IL-23R Reporter Assay
Compounds were serially diluted in 100% (v/v) DMSO) and plated using an Echo acoustic dispenser (Labcyte) into 1536-well non-treated black assay plates (Corning #9146). […] After 5 h at 37° C., 5% CO2, 95% relative humidity, cells were placed at 20° C. and treated with BioGlo reagent (Promega) according to the manufacturer's instructions. Luminescence was measured on a Pherastar FSX (BMG LabTech). […] Where multiple measurements have been made the average is shown with the number of replicates indicated in parenthesis following the IC50 values.
In general terms: A reporter such as luciferase makes a cellular process visible.

The conditions of series [2]: the molecule shown is the open-chain precursor, 20-membered ring.

Read-outs that look alike come from different tables or passages of the source. Where a SMILES comes first, the peptide text is derived from it. Bridges are numbered along the chain shown (N, C = ends). [ ]: non-standard residue; d: D form. The star is where a group is joined. Me3N+(CH2)2O(CH2)2O(CH2)2CO = C[N+](C)(C)CCOCCOCCC(=O)*; Trp(7-Me) = Cc1cccc2c(C[C@H](N)C(=O)O)c[nH]c12; 2Nal = N[C@@H](Cc1ccc2ccccc2c1)C(=O)O; AEF = NCCOc1ccc(C[C@H](N)C(=O)O)cc1; 3Pal = N[C@@H](Cc1cccnc1)C(=O)O; Aad = N[C@@H](CCCC(=O)O)C(=O)O; Lys(Me) = CNCCCC[C@H](N)C(=O)O; Pen = CC(C)(S)[C@H](N)C(=O)O; Thp = NC1(C(=O)O)CCOCC1; X1 = C[N+](C)(C)CCCCC*; Sar = CNCC(=O)O

As to `CC(=O)N[C@H](CCCCN)C(=O)N[C@@H]1C(=O)N[C@@H](CCC(N)=O)C(=O)N[C@@H]([C@@H](C)O)C(=O)N[C@@H](Cc2c[nH]c3ccccc23)C(=O)N[C@@H](CCC(N)=O)C(=O)N[C@H](C(=O)N[C@@H](Cc2ccc(OCCNC(C)=C3C(=O)CC(C)(C)CC3=O)cc2)C(=O)N[C@@H](Cc2ccc3ccccc3c2)C(=O)NC2(C(=O)N[C@@H](CCC(=O)O)C(=O)N[C@@H](CC(N)=O)C(=O)NCCC(N)=O)CCOCC2)C(C)(C)SSC1(C)C`, the ring closure, yield after HPLC (from Ac-dLys-Pen-Gln-Thr-Trp-Gln-Pen-AEF(Dde)-2Nal-THP-Glu-Asn-bAla-NH2?, disulfide bond, 20-membered ring, I2/AcOH, H2O/MeCN 1:1, 0.5 mM) turned out to be 48%. As for “6Ahx(2)-Abu(1)-N-T-W-Q-C(1)-AEF-2Nal-THP-E(2)-N-3Pya-Sar-CONH2”, for the setting “amide bond, 29-membered ring, PyBOP/DIEA, DMF, 5.0 mM”, the ring closure, yield after HPLC was determined as 5%. Consider “7Ahp(2)-Pen(3)-N-T-7MeW-K(Ac)-Pen(3)-AEF-2Nal-THP-E(2)-N-3Pya-Sar-CONH2”, for which, where the note is “amide bond, 30-membered ring, PyBOP/DIEA, DMF, 5.0 mM”, the ring closure, yield after HPLC is 13%. In general, IC50 refers to the concentration that inhibits the measured activity by half. In turn, `CC(=O)N(C)CCCC[C@@H]1NC(=O)[C@H](Cc2c[nH]c3c(C)cccc23)NC(=O)[C@H]([C@@H](C)O)NC(=O)[C@H](CC(=O)N(C)C)NC(=O)[C@H]2NC(=O)[C@H](NC(=O)CCOCCOCC[N+](C)(C)C)CCCCNC(=O)CCC[C@@H](C(=O)N[C@@H](CC(N)=O)C(=O)N[C@@H](Cc3cccnc3)C(=O)N(C)CC(=O)N(C)C)NC(=O)C3(CCOCC3)NC(=O)[C@H](Cc3ccc4ccccc4c3)NC(=O)[C@H](Cc3ccc(OCCCCC[N+](C)(C)C)cc3)NC(=O)[C@@H](NC1=O)C(C)(C)SSC2(C)C` [Compd 319] ({Me3N+(CH2)2O(CH2)2O(CH2)2CO}-[dK][Pen]D(NMe2)T[Trp(7-Me)][Lys(Me)](Ac)[Pen]Y(X1)[2Nal][Thp][Aad]N[3Pal][Sar]-NMe2; lactam 1-11; disulfide 2-7) gave an IC50 in series [1] of 0.0079 nM. In turn, `CC(=O)NCCCC[C@@H]1NC(=O)[C@H](Cc2c[nH]c3ccccc23)NC(=O)[C@H]([C@@H](C)O)NC(=O)[C@H]2CCC(=O)NCCOc3ccc(cc3)C[C@@H](C(=O)N[C@@H](Cc3ccc4ccccc4c3)C(=O)NC3(C(=O)N[C@@H](CCCCNC(C)=O)C(=O)N[C@@H](CO)C(=O)N[C@@H](Cc4cccnc4)C(=O)N(C)CC(N)=O)CCOCC3)NC(=O)[C@@H](NC1=O)C(C)(C)SSC(C)(C)[C@H](NC(C)=O)C(=O)N2` [Example 4, Ac-[Pen]-E-T-W-[Lys(Ac)]-[Pen]-[Phe(4-(2-aminoethoxy))]-[2Nal]-[THP]-[Lys(Ac)]-S-[3Pal]-[Sarc]-NH2] (Ac-[Pen][dE]TWK(Ac)[Pen][AEF][2Nal][Thp]K(Ac)S[3Pal][Sar]-NH2; disulfide 1-6; lactam 2-7) displayed an IC50 against IL-23R of 330 nM. In turn, `CC(=O)NCCCC[C@@H]1NC(=O)[C@H](Cc2c[nH]c3c(C)cccc23)NC(=O)[C@H]([C@@H](C)O)NC(=O)[C@H](CC(N)=O)NC(=O)[C@H]2NC(=O)CCCCCCNC(=O)CC[C@@H](C(=O)N[C@@H](CC(N)=O)C(=O)N(C)[C@H](Cc3ccc(O)cc3)C(N)=O)NC(=O)C3(CCOCC3)NC(=O)[C@H](Cc3ccc4ccccc4c3)NC(=O)[C@H](Cc3ccc(OCCN)cc3)NC(=O)[C@@H](NC1=O)C(C)(C)SSC2(C)C` [Example 25, [7AminoHeptanoicAcid]-[Pen]-N-T-[W(7-Me)]-[Lys(Ac)]-[Pen]-[Phe(4-(2-aminoethoxy))]-[2Nal]-[THP]-E-N-[(D)NMeTyr]-NH2] had a concentration for half-maximal inhibition (IC50) against IL-23R of 830 nM.

On IL-23R, `CC(=O)NCCCC[C@@H]1NC(=O)[C@H](Cc2c[nH]c3c(C)cccc23)NC(=O)[C@H]([C@@H](C)O)NC(=O)[C@H](CC(N)=O)NC(=O)[C@@H](NC(=O)CCCCCCN)C(C)(C)SSC(C)(C)[C@@H](C(=O)N[C@H]2Cc3ccc(cc3)OCCNC(=O)CC[C@@H](C(=O)N[C@@H](CC(N)=O)C(=O)N[C@@H](Cc3cccnc3)C(=O)N(C)CC(N)=O)NC(=O)C3(CCOCC3)NC(=O)[C@H](Cc3ccc4ccccc4c3)NC2=O)NC1=O` [Example 137, [7AminoHeptanoicAcid]-[Pen]-N-T-[W(7-Me)]-[Lys(Ac)]-[Pen]-[Phe(4-(2-aminoethoxy))]-[2Nal]-[THP]-E-N-[3Pal]-[Sarc]-NH2] displayed an IC50 of 430 nM. In turn, `CC(=O)NCCCC[C@@H]1NC(=O)[C@H](Cc2c[nH]c3c(C)cccc23)NC(=O)[C@H]([C@@H](C)O)NC(=O)[C@H](CC(N)=O)NC(=O)[C@@H](NC(=O)CCCCCCN)C(C)(C)SSC(C)(C)[C@@H](C(=O)N[C@H]2Cc3ccc(cc3)OCCNC(=O)CC[C@@H](C(=O)N[C@@H](CC(N)=O)C(=O)NC3(C(N)=O)CCOCC3)NC(=O)C3(CCOCC3)NC(=O)[C@H](Cc3ccc4ccccc4c3)NC2=O)NC1=O` [Example 139, [7AminoHeptanoic Acid]-[Pen]-N-T-[W(7-Me)]-[Lys(Ac)]-[Pen]-[Phe(4-(2-aminoethoxy))]-[2Nal]-[THP]-E-N-[THP]-NH2] returned a concentration for half-maximal inhibition (IC50) against IL-23R above 16600 nM.

For the setting “the molecule shown is the open-chain precursor, disulfide bond, 20-membered ring, I2/AcOH, then Boc2O/DIEA, H2O/MeCN, 0.55 mM, 2 steps”, “Ac-O2R-Pen-Gln-Thr-Trp-Gln-Pen-Phe[4-(2-aminoethoxy)]-2Nal-THP-O2R-Asn-bAla-NH2” showed a ring closure, yield after HPLC of 40%. Consider “Ac-Pen-Glu-Thr-Trp_7Me-Lys(Ac)-Pen-Phe_4_2ae-2Nal-THP-Lys(Ac)-Asn-His-Sar-NH2”, for which the ring closure, yield after HPLC (the molecule shown is the open-chain precursor, disulfide bond, 20-membered ring, I2/MeOH, MeCN/H2O 20:80, 1.0 mM, with chain assembly) stood at 30%. With “H-6Ahx-Abu(4-Cl)-Asn-Thr-Trp-Gln-Cys-AEF-2Nal-THP-Glu-Asn-3Pya-Sar-NH2?”, in series [2] (thioether bond, NaI/EDTA/Na2CO3, DMF, 1.07 mM), the ring closure, isolated yield worked out at 21%. With “H-7Ahp-Pen-Asn-Thr-7MeTrp-Lys(Ac)-Pen-AEF-2Nal-THP-Glu-Asn-3Pya-Sar-NH2”, in series [2] (disulfide bond, I2/MeOH, MeCN/H2O 30:70, 1.0 mM), the ring closure, isolated yield is 30.3%.

In the case of “H-PEG2-Pen-Asn-Thr-7MeTrp-Lys(Ac)-Pen-AEF(Dde)-2Nal-THP-hGlu-Asn-3Pya-Sar-NH2”, the ring closure, isolated yield in series [2] (disulfide bond, I2/MeOH, H2O/MeCN 1:1, 0.46 mM) is 32%.

As to “McCO-Glu-Pen-N-T-7MeW-K(Ac)-Pen-AEF-2Nal-THP—K(Ac)—N-3Pva-Sar-CONH2”, the ring closure, yield after HPLC (amide bond, 24-membered ring, HATU/DIEA, DMF, 0.24 mM, 2 steps) is 10%. “McCO-k(2)-Pen(3)-O-T-W-Q-Pen(3)-AEF-2Nal-THP-E(2)-N-bAla-CONH2” displayed a ring closure, yield after HPLC (amide bond, 29-membered ring, HATU/DIEA, then N2H4, DMF, […], 2 steps) of 49%. “PEG2(2)-Pen(3)-N-T-7MeW-K(Ac)-Pen(3)-AEF-2Nal-THP-hE(2)-N-3Pya-Sar-CONH2” displayed a ring closure, yield after HPLC (amide bond, 32-membered ring, HATU/DIEA, then N2H4, DMF, 4.8 mM, 2 steps) of 14%. Turning to “ac-Pen(1:3)-Dap(2:3)-T-Trp 7Me-Lvs Ac-Pen(1:3)-Phe 4 2ae(3:3)-Nal-THP-Lys Ac—N—H-Sar-am-PEG4DA(x,2:1,3:2)”, where the note is “crosslinker bond, 39-membered ring, PEG4DA-NHS/DIEA, DMF, 1.0 mM”, the ring closure, yield after HPLC came to 50%.

In the case of “ac-Pen(1:3)-E(2:3)-T-Trp 7Me-Lys Ac-Pen(1:3)-Phe 4 2ae(2:3)-Nal-THP-Lys Ac—N—H-Sar-am”, where the note is “amide bond, 24-membered ring, PyBOP/DIEA, DMF, 1.0 mM”, the ring closure, yield after HPLC came out at 50%.
